“Also recorded” adds a separate entry of the source.
How the values were obtained:
A2780 ovarian = assay: MTT growth inhibition assay, A2780; type: cell-based, human
panel of cell lines = assay: MTT growth inhibition assay, whole panel of cell lines; type: cell-based, human; details: 72 h; for GI50: average over the cell lines tested, MTT assay; for cytotoxicity: panel of cell lines, MTT
U87 glioblastoma = assay: MTT growth inhibition assay, U87; type: cell-based, human; details: 72 h
MIA pancreas = assay: MTT growth inhibition assay, MIA; type: cell-based, human; details: 72 h
SJ-G2 glioblastoma = assay: MTT growth inhibition assay, SJ-G2; type: cell-based, human
MCF-7 breast = assay: MTT growth inhibition assay, MCF-7; type: cell-based, human; details: MTT assay, 72 h
HT29 colon cells = assay: ROS detection assay (DCFH-DA); type: cell-based, human; details: for ROS production relative to the control: HT29 colon cells, 24, 48 and 72 h; for ROS production 24 h / ROS production 48 h / ROS production 72 h: HT29 colon cells, treated at GI50 concentration (TBHP positive control 20 μM)
Source text: Although ROS is required for cancer cell function and progression, it can induce programmed cell death or apoptosis. […] In this study, we report the ROS activity of the studied platinum(IV) complexes, 1–8, together with the individual axial ligands (4-CPA, 4-FPA, 4-BPA, and 4-IPA) in the human cancer cell line, HT29 colon (Figure 19, Table 8, and Figure S95). The ROS potential of their platinum(II) and platinum(IV) precursors in the same cell line is also presented for comparison purposes (Table 8). […] HT29 colon cells were stained by DCFH-DA and then treated with the complexes at each specific GI50 concentration. Upon ROS production, the DCFH-DA produced dichlorodihydrofluorescein, a fluorescent product. The measured fluorescence was, therefore, proportional to the produced ROS.
To investigate the presence of ROS in treated cells, a DCFDA/H2DCFDA-cellular ROS Assay Kit (Abcam, Cambridge, MA, USA) was used, as previously described. A total of 25,000 cells/mL of HT29 cells in DMEM were seeded in 96-well plates. Cells were washed with 1X kit buffer, and then stained with 25 μM 2′,7′-dichlorofluorescein diacetate (DCFH-DA) and incubated for 45 min. DCFH-DA was then removed, and cells were then re-washed with 1X kit buffer, after which phenol red free media was added. Cells were then treated with a GI50 drug concentration for each complex. The plates were directly scanned to measure fluorescence (relative fluorescence units (RFU)) at different time points using the Glo-Max®-Multimode microplate reader (Promega Corporation, Alexandra, VIC, Australia) at an excitation/emission of 485/535 nm. To generate the positive control (20 μM tert-butyl hydroperoxide (TBHP)), cells were washed with 1X kit buffer, and stained with DCFDA (25 μM) for 45 min; this was removed and TBHP was added in phenol red free media, and the resulting solution was scanned as described above.

H460 lung = assay: MTT growth inhibition assay, H460; type: cell-based, human
Du145 prostate = assay: MTT growth inhibition assay, Du145; type: cell-based, human; details: MTT assay, 72 h
BE2-C neuroblastoma = assay: MTT growth inhibition assay, BE2-C; type: cell-based, human; details: 72 h
[1] = tested on: ADDP-resistant ovarian variant; assay: MTT growth inhibition assay, ADDP; type: cell-based, human; details: MTT assay, 72 h
HT29 colon = assay: MTT growth inhibition assay, HT29; type: cell-based, human; details: MTT assay, 72 h
[2] = tested on: non-tumour derived MCF10A breast line; assay: MTT growth inhibition assay, MCF10A; type: cell-based, human; details: 72 h
A431 skin = assay: MTT growth inhibition assay, A431; type: cell-based, human
[3] = Lipophilicity by HPLC (log kw); type: physicochemical
Source text: For lipophilicity measurements, HPLC was utilised instead of the traditional shake-flask method, as described previously. Recent studies have also reported the efficiency of HPLC in measuring the lipophilicity of compounds [79, 80]. Each complex was eluted under several isocratic ratios. A standard curve was generated to calculate the log value of the capacity factor (log k) according to Equation (1). Following Equation (2), the percentage of organic solvent (CH3CN) in the mobile phase from each isocratic run was plotted against log kw (Figure S80). Log kw is the chromatographic lipophilicity index or measure of lipophilicity of the complex, so a higher value corresponds to greater lipophilicity. Because the selected axial ligands in this study contain F, Cl, Br, and I, it was only appropriate to determine the influence of the halogens on the overall lipophilicity of the platinum(IV) complexes. […] Conversely, the least lipophilic complex was the phen derivative containing 4-FPA, 3, with a log kw of 0.25. Furthermore, for the phen derivatives, the order of increasing lipophilicity was 3 > 1 > 5 > 7, which corresponds to the order of increasing size of the halogens, F > Cl > Br > I. This pattern was also observed with the 5,6-Me2phen derivatives (4 > 2 > 6 > 8), thereby confirming that the halogens increased the order of lipophilicity accordingly based on their size.
For lipophilicity measurements, analytical HPLC was utilised. Elution profiles were acquired on an Agilent (Melbourne, VIC, Australia) Technologies 1260 Infinity instrument equipped with a Phenomenex Onyx^TM Monolithic C18-reverse phase column (100 × 4.6 mm, 5 µm pore size) (Sydney, NSW, Australia). The mobile phase consisted of solvents, A (0.06% TFA in d.i.H2O) and B (0.06% TFA in CH3CN/d.i.H2O (90:10)). Potassium iodide was used as an external dead volume marker to determine the dead time of the column. Retention times (TR) were measured at varying isocratic ratios ranging from 30 to 36% of solvent B at 1 mL·min^−1 mL. An injection volume of 10 µL was utilised. Capacity factors were determined according to Equation (1):(1) k=(TR−T0)/T0 where k is the capacity factor, TR is the retention time of the analyte, and T0 represents the dead time. A minimum of four different mobile compositions were used for each complex to calculate k. A linear plot was generated of log k against the concentration of CH3CN in the mobile phase to determine the value of log kw expressed by Equation (2):(2) logk=Sφ+logkw where S is the slope, φ is the concentration of the CH3CN in the mobile phase, and log kw represents the capacity factor of the complex in 100% d.i.H2O. Extrapolation of this linear plot to the y-intercept indicates the log kw value.

[4] = Reduction experiments with AsA by 1H-NMR and 1D-195Pt-NMR; type: physicochemical; details: D2O, 37 °C
Source text: Platinum(IV) complexes are reduced to their platinum(II) precursors by intracellular biological reducing agents such as AsA or GSH in tumour cells. However, the precise mechanism by which reduction occurs is not fully understood. In this paper, reduction reaction experiments were undertaken on the synthesised platinum(IV) complexes, 1–8, with the aid of ^1H-NMR and 1D-^195Pt-NMR spectroscopy. The method used for the reduction reaction experiments was adapted from the literature without modifications. A total of 10 mM PBS (~7.4 pH) was selected as media, and AsA was used as the biological reducing agent to investigate the reduction property of 1–8. Prior to the reduction reaction experiments, a control was prepared where each metal complex was dissolved with PBS in D2O. 1D-^195Pt-NMR was measured within the regions of −2800 and 400 ppm (30 min per region), at 37 °C. This was undertaken to confirm that the PBS would not interfere with the reduction process of the metal complexes. […] The approximate time points for the studied complexes at which an estimated 50% reduction had occurred, in the presence of AsA, as represented by T50%, are summarised in Table 6.
The reduction properties of 1–8 were monitored using ^1H-NMR and 1D-^195Pt-NMR spectroscopy on a 400 MHz Bruker (Melbourne, VIC, Australia) Avance Spectrometer. A sequence of ^1H-NMR experiments was carried out for 1 h at 37 °C, followed by 1D-^195Pt-NMR within the regions of −2800 and 400 ppm. An amount of 10 mM PBS (~7.4 pH) was transferred to a vial and reduced to dryness through rotary evaporation. AsA (~1 mg) was combined with the metal complex (~5 mg) and transferred to the vial containing the dried PBS. A total of 600 µL of D2O was then added to the vial to dissolve the complex, AsA, and the PBS together.

| GI50 (A2780 ovarian; Homo sapiens, A2780, 72 h) | GI50 (U87 glioblastoma; Homo sapiens) | GI50 (MIA pancreas; Homo sapiens) | GI50 (SJ-G2 glioblastoma; Homo sapiens, SJ-G2, 72 h) | GI50 (MCF-7 breast; Homo sapiens, MCF7) | GI50 (H460 lung; Homo sapiens, NCI-H460, 72 h) | GI50 (Du145 prostate; Homo sapiens, DU-145) | GI50 (BE2-C neuroblastoma; Homo sapiens, BE(2)-C) | GI50 (HT29 colon; Homo sapiens, HT-29) | GI50 (A431 skin; Homo sapiens, A-431, 72 h) | Structure (SMILES) | GI50 (panel of cell lines; Homo sapiens) | cytotoxicity (panel of cell lines) | ROS production relative to the control (HT29 colon cells) | ROS production 24 h (HT29 colon cells) | ROS production 48 h (HT29 colon cells) | ROS production 72 h (HT29 colon cells) | GI50 ([1]; Homo sapiens) | GI50 ([2]; Homo sapiens, MCF-10A) | also measured |
| --- | --- | --- | --- | --- | --- | --- | --- | --- | --- | --- | --- | --- | --- | --- | --- | --- | --- | --- | --- |
| > 50 µM | > 50 µM | > 50 µM | > 50 µM | > 50 µM | > 50 µM | > 50 µM | > 50 µM | > 50 µM | > 50 µM | O=C(O)Cc1ccc(Cl)cc1 [Complex 4-CPA, 4-chlorophenylacetic acid] | > 50 µM | did not demonstrate significant cytotoxicity | increase in ROS production relative to the control | 167 ± 13.2 RFU | 207 ± 14.5 RFU | 233 ± 10.4 RFU | > 50 µM | > 50 µM |  |
| > 50 µM | > 50 µM | > 50 µM | > 50 µM | > 50 µM | > 50 µM | > 50 µM | > 50 µM | > 50 µM | > 50 µM | O=C(O)Cc1ccc(I)cc1 [Complex 4-IPA, 4-iodophenylacetic acid] | > 50 µM | did not demonstrate significant cytotoxicity | increase in ROS production relative to the control | 137 ± 7 RFU | 182 ± 12 RFU | 206 ± 9 RFU | > 50 µM | > 50 µM |  |
| > 50 µM | > 50 µM | > 50 µM | > 50 µM | > 50 µM | > 50 µM | > 50 µM | > 50 µM | > 50 µM | > 50 µM | O=C(O)Cc1ccc(Br)cc1 [Complex 4-BPA, 4-bromophenylacetic acid] | > 50 µM | did not demonstrate significant cytotoxicity | increase in ROS production relative to the control | 172 ± 9 RFU | 198 ± 10 RFU | 222 ± 13 RFU | > 50 µM | > 50 µM |  |
|  |  |  |  |  |  |  |  |  |  | N[C@H]1CCCC[C@@H]1N.O=C(Cc1ccc(Cl)cc1)[O][Pt+2]1([OH])[N]2C=CC=c3ccc4c(c32)[N]1C=CC=4 [Complex 1, [Pt^IV(phen)(SS-DACH)(4-CPA)(OH)]^2+] |  |  |  | 272 ± 9 RFU | 368 ± 19 RFU | 409 ± 11 RFU |  |  | GI50 (A2780 ovarian; 72 h): 0.28 ± 0.067 µM; GI50 (panel of cell lines): 0.406 ± 0.09 µM; GI50 (U87 glioblastoma): 0.74 ± 0.23 µM; GI50 (MIA pancreas): 0.27 ± 0.042 µM; GI50 (SJ-G2 glioblastoma; 72 h): 0.42 ± 0.092 µM; GI50 (MCF-7 breast): 0.86 ± 0.18 µM; GI50 (H460 lung; 72 h): 0.38 ± 0.081 µM; GI50 (Du145 prostate): 0.14 ± 0.043 µM; GI50 (BE2-C neuroblastoma): 0.49 ± 0.093 µM; log kw ([3]; chromatographic lipophilicity index, extrapolated to 100% d.i.H2O): 0.75; log kw (y-intercept of log k versus [CH3CN] % plot, Figure S80) ([3]; linear fit): 0.7472; GI50 [1]: 0.29 ± 0.05 µM; GI50 (HT29 colon): 0.15 ± 0.064 µM; GI50 [2]: 0.29 ± 0.09 µM; T50% (approximate time at which 50% reduction occurs) ([4]; 10 mM PBS (~7.4 pH), 1H-NMR): 15 to 20 min; time at which reduction starts ([4]; PBS, 1H-NMR): 5 min; extent of reduction at 1 h (1H-NMR) ([4]; PBS, 1 h): almost entirely reduced to its platinum(II) precursor, PHENSS; extent of reduction 1 h after the final 1H-NMR experiment (1D-195Pt-NMR) ([4]; PBS, regions −2800 and 400 ppm): reduced entirely to PHENSS; also recorded: complete reduction; GI50 (A431 skin; 72 h): 0.56 ± 0.073 µM |
|  |  |  |  |  |  |  |  |  |  | CC(C)(C)OO [TBHP, tert-butyl hydroperoxide] |  |  |  | 514 ± 3 RFU | 336 ± 2 RFU | 332 ± 5 RFU |  |  |  |
| > 50 µM | > 50 µM | > 50 µM | > 50 µM | > 50 µM | > 50 µM | > 50 µM | > 50 µM | > 50 µM | > 50 µM | O=C(O)Cc1ccc(F)cc1 [Complex 4-FPA, 4-fluorophenylacetic acid] | > 50 µM | did not demonstrate significant cytotoxicity | increase in ROS production relative to the control | 197 ± 8 RFU | 224 ± 11 RFU | 236 ± 6 RFU | > 50 µM | > 50 µM |  |
